The values below are quoted from earlier work in patent publication US20030162803A1, “Anhydrovinblastine for the treatment of cancer” (priority 1997, published 2003).

The conditions of this data set: triphasic elimination profile; cited from earlier work.

Molecules are shown by their SMILES.

Consider `CC[C@]1(O)C[C@@H]2CN(CCc3c([nH]c4ccccc34)[C@@](C(=O)OC)(c3cc4c(cc3OC)N(C)[C@H]3[C@@](O)(C(=O)OC)[C@H](OC(C)=O)[C@]5(CC)C=CCN6CC[C@]43[C@@H]65)C2)C1` [Vinblastine], for which the initial alpha half-life entry was “less than 5 minutes”.
